Columns and labels:
[1] = tested on: panel of 12 human tumor cell lines; experiment: Monolayer assay, panel of 12 human tumor cell lines; assay type: cell-based; conditions: for IC50 / Mean IC70: mean over panel of 12 human tumor cell lines, test range 0.0001 μM-10 μM; for % Selectivity / Rating (selectivity) / Selectivity Total (cell lines with individual IC70 < 1/3 mean IC70) / in vitro antitumor activity: panel of 12 human tumor cell lines
Procedure: (§1) Cell lines were routinely passaged once or twice weekly and maintained in culture for upto 20 passages. All cells were grown at 37° C. in a humidified atmosphere with 5% CO2 in RPMI 1640 medium supplemented with 10% (v/v) fetal calf serum (FCS) and 0.1 mg/mL gentamicin (medium and all other components from PAA, Cölbe, Germany). Authenticity of all cell lines was proven at the DSMZ by STR (short tandem repeat) analysis, a PCR based DNA-fingerprinting methodology.
Stock solutions of the test compounds (330 μg/mL in DMSO) were prepared and stored in small aliquots (200 μL) at −20° C. An aliquot of the stock solution was thawed on the day of use and stored at room temperature prior to and during dosing. The subsequent dilutions were done with complete RPMI 1640 cell culture medium as follows: the stock solution was diluted 1:22 followed by serial dilutions finally resulting in a (compared to the test concentration) 15-fold higher concentration. For the final dilution step (1:15), 10 μL/well of the respective compound solution was directly added to 140 μL/well culture medium. Test compounds were tested at […]. Each concentration was evaluated in triplicate.
A modified propidium iodide assay was used to assess the effect of the test compounds on the growth of the human tumor cell lines and was designed as in reference, Anti-cancer Drugs, 6, 522-532, (1995), the disclosure of which is incorporated by reference for the teaching of the assay.
Cells were plated in 96-well flat-bottom microtiter plates at a cell density of 4,000 to 10,000 cells/well. After a 24 h recovery period to allow the cells to resume exponential growth, the test compounds were applied at five concentrations in log increments in triplicates in two independent runs. After 4 days of treatment, the medium with/without test compounds including all floating (i.e., dead) cells was aspirated and replaced by 200 μL of an aqueous propidium iodide (PI) solution (7 μg/mL). To measure the viable cell number, the remaining adherent cells were killed and permeabilized by repeated freezing and thawing and PI fluorescence was measured using the Cytofluor 4000 microplate reader (excitation λ=530 nm, emission λ=620 nm), which was a measure for the number of cells which survived treatment. Pharmacological effects on cell proliferation and survival were expressed as Test/Control×100 (% T/C) values, with T and C representing the fluorescence read-outs for wells with and without test compound, respectively, i.e. T/C represents the ratio of viable cell numbers following incubation of cell line with/without test compound. Based on the T/C values IC50 and IC70 values, being the drug concentration necessary to inhibit cell growth by 50% (T/C=50%) and 70% (T/C=30%), respectively, were determined by plotting compound concentration versus cell viability (T/C). IC-values were calculated based on the principle of linear two-point curve fit.

MDA 231 = experiment: Monolayer assay (modified propidium iodide), MDA 231; assay type: cell-based, human; conditions: MDA 231, Mammary; 4 days of treatment
Text: (§2) Oncotest GmbH, Germany's proprietary tumor cell line panel comprises 40 cell lines. These cell lines were derived from 15 different tumor histotypes, each represented by 1 to 6 different cell lines. Cell lines were established from cancer of the bladder (3), colon (4), head and neck (1), lung (6), breast (3), pancreas (3), prostate (4), ovary (2), kidney (3), liver (1), stomach (1) and the uteri body (1), as well as from melanoma (3), sarcoma (2) and pleuramesothelioma (3). Out of these 40 cell lines, 24 cell lines were established at Oncotest, from patient-derived tumor xenografts. The other 16 cell lines were either provided by the NCI (Bethesda; MD, USA) or were purchased from ATCC (Rockville, Md., USA) or DSMZ (Braunschweig, Germany).
as §1, with “Authenticity of all cell lines was proven at the DSMZ by STR (short tandem repeat) analysis, a PCR based DNA-fingerprinting methodology.” left out
(§3) Stock solutions of the test compounds (330 μg/mL in DMSO) were prepared and stored in small aliquots (200 μL) at −20° C. […] Each concentration was evaluated in triplicate. […]
(§4) Cells were plated in 96-well flat-bottom microtiter plates at a cell density of 4,000 to 10,000 cells/well. […] To measure the viable cell number, the remaining adherent cells were killed and permeabilized by repeated freezing and thawing and PI fluorescence was measured using the Cytofluor 4000 microplate reader (excitation λ=530 nm, emission λ=620 nm), which was a measure for the number of cells which survived treatment. Pharmacological effects on cell proliferation and survival were expressed as Test/Control×100 (% T/C) values, with T and C representing the fluorescence read-outs for wells with and without test compound, respectively, i.e. T/C represents the ratio of viable cell numbers following incubation of cell line with/without test compound. […] IC-values were calculated based on the principle of linear two-point curve fit. […]

T 24 = experiment: Monolayer assay (modified propidium iodide), T 24; assay type: cell-based, human; conditions: T 24, Bladder; 4 days of treatment
Text: as §2
as §1, with “Authenticity of all cell lines was proven at the DSMZ by STR (short tandem repeat) analysis, a PCR based DNA-fingerprinting methodology.” left out
as §3, §4

LXF 526L = experiment: Monolayer assay (modified propidium iodide), LXF 526L; assay type: cell-based, human; conditions: Lung, 4 days of treatment
Text: as §2
as §1, with “Authenticity of all cell lines was proven at the DSMZ by STR (short tandem repeat) analysis, a PCR based DNA-fingerprinting methodology.” left out
as §3, §4

CXF 269L = experiment: Monolayer assay (modified propidium iodide), CXF 269L; assay type: cell-based, human; conditions: Colon, 4 days of treatment
Text: as §2
as §1, with “Authenticity of all cell lines was proven at the DSMZ by STR (short tandem repeat) analysis, a PCR based DNA-fingerprinting methodology.” left out
as §3, §4

SMILES	IC50 [1]	Mean IC70 [1]	% Selectivity [1]	Rating (selectivity) [1]	Selectivity Total (cell lines with individual IC70 < 1/3 mean IC70) [1]	in vitro antitumor activity [1]	IC70 (MDA 231)	IC70 (T 24)	IC70 (LXF 526L)	IC70 (CXF 269L)
C/C=C/C(O)C(C)/C=C/C(=NOCC(=O)O)C(C)C(O)C(C)C1OC(=O)/C(OC)=C/C(C)=C/C(C)C(O)C(CC)C(O)C(C)C/C(C)=C/C=C/C1OC (stereo in doubt) [Example 10, ((Z)-((6E,10E)-2-((4E,6E,14E,16Z)-11-Ethyl-10,12-dihydroxy-3,17-dimethoxy-7,9,13,15-tetramethyl-18-oxooxacyclooctadeca-4,6,14,16-tetraen-2-yl)-3,9-dihydroxy-4,8-dimethyldodeca-6,10-dien-5-ylidene)aminooxy)acetic acid]	514 nM	1258 nM	8%	(+) (+ (4% > selective >= 12%))	1/12	showed in vitro antitumor activity				
C/C=C/C(O)C(C)/C=C/C(=NOCC(=O)N1CCN(C)CC1)C(C)C(O)C(C)C1OC(=O)/C(OC)=C/C(C)=C/C(C)C(O)C(CC)C(O)C(C)C/C(C)=C/C=C/C1OC (stereo in doubt) [Example 11, (3Z,5E,13E,15E)-18-((5Z,6E,10E)-3,9-Dihydroxy-4,8-dimethyl-5-(2-(4-methylpiperazin-1-yl)-2-oxoethoxyimino)dodeca-6,10-dien-2-yl)-9-ethyl-8,10-dihydroxy-3,17-dimethoxy-5,7,11,13-tetramethyloxacyclooctadeca-3,5,13,15-tetraen-2-one]	6 nM	20 nM	25%	(+ + +)	3/12	showed in vitro antitumor activity				
C/C=C/C(O)C(C)/C=C/C(=NOCC(=O)NCCO)C(C)C(O)C(C)C1OC(=O)/C(OC)=C/C(C)=C/C(C)C(O)C(CC)C(O)C(C)C/C(C)=C/C=C/C1OC (stereo in doubt) [Example 12, 2-((Z)-((6E,10E)-2-((4E,6E,14E,16Z)-11-Ethyl-10,12-dihydroxy-3,17-dimethoxy-7,9,13,15-tetramethyl-18-oxooxacyclooctadeca-4,6,14,16-tetraen-2-yl)-3,9-dihydroxy-4,8-dimethyldodeca-6,10-dien-5-ylidene)aminooxy)-N-(2-hydroxyethyl)acetamide]	2 nM	6 nM	42%	(+ + +)	5/12	showed in vitro antitumor activity				
C/C=C/C(O)C(C)/C=C/C(=NOCC(=O)N1CCCCC1)C(C)C(O)C(C)C1OC(=O)/C(OC)=C/C(C)=C/C(C)C(O)C(CC)C(O)C(C)C/C(C)=C/C=C/C1OC (stereo in doubt) [Example 13, (3Z,5E,13E,15E)-18-((5Z,6E,10E)-3,9-Dihydroxy-4,8-dimethyl-5-(2-oxo-2-(piperidin-1-yl)ethoxyimino)dodeca-6,10-dien-2-yl)-9-ethyl-8,10-dihydroxy-3,17-dimethoxy-5,7,11,13-tetramethyloxacyclooctadeca-3,5,13,15-tetraen-2-one]	30 nM	97 nM	17%	(+ +)	2/12	showed in vitro antitumor activity				
C/C=C/C(O)C(C)/C=C/C(=NOCC(=O)N1CCC(N2CCCCC2)CC1)C(C)C(O)C(C)C1OC(=O)/C(OC)=C/C(C)=C/C(C)C(O)C(CC)C(O)C(C)C/C(C)=C/C=C/C1OC (stereo in doubt) [Example 14, (3Z,5E,13E,15E)-18-((5Z,6E,10E)-5-(2-(1,4′-Bipiperidin-1′-yl)-2-oxoethoxyimino)-3,9-dihydroxy-4,8-dimethyldodeca-6,10-dien-2-yl)-9-ethyl-8,10-dihydroxy-3,17-dimethoxy-5,7,11,13-tetramethyloxacyclooctadeca-3,5,13,15-tetraen-2-one]	358 nM	762 nM	8%	(+) (+ (4% > selective >= 12%))	1/12	showed in vitro antitumor activity				
C/C=C/C(O)C(C)/C=C/C(=NOCC(=O)NCc1ccc(F)cc1)C(C)C(O)C(C)C1OC(=O)/C(OC)=C/C(C)=C/C(C)C(O)C(CC)C(O)C(C)C/C(C)=C/C=C/C1OC (stereo in doubt) [Example 15, 2-((Z)-((6E,10E)-2-((4E,6E,14E,16Z)-11 Ethyl-10,12-dihydroxy-3,17-dimethoxy-7,9,13,15-tetramethyl-18-oxooxacyclooctadeca-4,6,14,16-tetraen-2-yl)-3,9-dihydroxy-4,8-dimethyldodeca-6,10-dien-5-ylidene)aminooxy)-N-(4-fluorobenzyl)acetamide]	1 nM	3 nM	50%	(+++) (+++ (% selective > 20%))	6/12	showed in vitro antitumor activity				
C/C=C/C(O)C(C)/C=C/C(=N\OC)C(C)C(O)C(C)C1OC(=O)/C(OC)=C/C(C)=C/C(C)C(O)C(CC)C(O)C(C)C/C(C)=C/C=C/C1OC (stereo not shown) [Example 8, (3Z,5E,13E,15E)-18-((5E,6E,10E)-3,9-Dihydroxy-5-(methoxyimino)-4,8-dimethyldodeca-6,10-dien-2-yl)-9-ethyl-8,10-dihydroxy-3,17-dimethoxy-5,7,11,13-tetramethyloxacycloocta deca-3,5,13,15-tetraen-2-one]							≤ 0.3 ng/mL	≤ 0.3 ng/mL	≤ 0.3 ng/mL	≤ 0.3 ng/mL

— US8637683B2, “Macrocyclic lactone derivatives for the treatment of cancer” (Piramal Enterprises Limited, priority 2009, dated 2014)
